Laboratory results: the supplement of paper PMC10307832

How the values were obtained:
Assay in all cases: relative viability (nuclei count vs DMSO), 5 days (fraction); higher = more cells survive
Bromopyruvate + AZD7762 = compound: C(C(=O)C(=O)O)Br [Bromopyruvate] + NC(=O)Nc1cc(-c2cccc(F)c2)sc1C(=O)N[C@H]1CCCNC1 [AZD7762] (partner 0.2 µM)
How it was run: (§1)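 Relative viability equals treated-well nuclei counts divided by vehicle-well nuclei counts. Counts came from 4× images of lung cancer cell lines grown in 1536-well plates for 5 days after pin-tool dosing on the day after seeding. Dosing used one drug alone or a fixed anchor-drug dose plus five library-drug doses (not always all listed) in √10 steps, and values are medians of duplicate plates.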

[1] = compound: C(C(=O)C(=O)O)Br [Bromopyruvate] + CC(=O)c1c(C)c2cnc(Nc3ccc(N4CCNCC4)cn3)nc2n(C2CCCC2)c1=O [Palbociclib] (partner 0.5 µM)
How it was run: as §1

[2] = compound: CC(O)(CS(=O)(=O)c1ccc(F)cc1)C(=O)Nc1ccc(C#N)c(C(F)(F)F)c1 [Bicalutamide] + Nc1ncn([C@H]2C[C@H](O)[C@@H](CO)O2)c(=O)n1 [Decitabine] (partner 2 µM)
How it was run: as §1

[3] = compound: CC(O)(CS(=O)(=O)c1ccc(F)cc1)C(=O)Nc1ccc(C#N)c(C(F)(F)F)c1 [Bicalutamide] + C[C@@H](Oc1cc(-c2cnn(C3CCNCC3)c2)cnc1N)c1c(Cl)ccc(F)c1Cl [Crizotinib] (partner 1 µM)
How it was run: as §1

Cell Line | relative viability (Bromopyruvate + AZD7762; first compound 1 µM) | relative viability (Bromopyruvate + AZD7762; first compound 3.162 µM) | relative viability (Bromopyruvate + AZD7762; first compound 10 µM) | relative viability (Bromopyruvate + AZD7762; first compound 31.62 µM) | relative viability (Bromopyruvate + AZD7762; first compound 100 µM) | relative viability ([1]; first compound 1 µM) | relative viability ([1]; first compound 3.162 µM) | relative viability ([1]; first compound 10 µM) | relative viability ([1]; first compound 31.62 µM) | relative viability ([1]; first compound 100 µM) | relative viability ([2]; first compound 0.08 µM) | relative viability ([2]; first compound 0.253 µM) | relative viability ([2]; first compound 0.8 µM) | relative viability ([2]; first compound 2.53 µM) | relative viability ([3]; first compound 0.08 µM) | relative viability ([3]; first compound 0.253 µM) | relative viability ([3]; first compound 0.8 µM) | relative viability ([3]; first compound 2.53 µM)
NCI-H522 | 0.874 | 0.861 | 0.821 | 1.05 | 0.755 | 1.02 | 1.03 | 1 | 1.02 | 1.1 | 0.585 | 0.575 | 0.71 | 0.632 | – | – | – | –
HCC-15 | 1.22 | 1.25 | 1.32 | 1.25 | 1.22 | 0.654 | 0.677 | 0.846 | 0.771 | 0.741 | 0.63 | 0.595 | 0.74 | 0.584 | 0.82 | 0.767 | 1.01 | 0.882
A-427 | 0.782 | 0.747 | 0.883 | 0.66 | 0.755 | 0.51 | 0.552 | 0.551 | 0.536 | 0.497 | 0.608 | 0.533 | 0.666 | 0.562 | 0.934 | 0.967 | 0.915 | 0.804
NCI-H23 | 0.27 | 0.22 | 0.249 | 0.206 | 0.251 | 0.466 | 0.482 | 0.601 | 0.572 | 0.387 | 0.312 | 0.36 | 0.311 | 0.297 | 0.495 | 0.467 | 0.493 | 0.399
NCI-H1734 | 0.536 | 0.7 | 0.694 | 0.53 | 0.544 | 0.349 | 0.378 | 0.39 | 0.34 | 0.295 | 0.542 | 0.453 | 0.515 | 0.558 | 0.667 | 0.553 | 0.798 | 0.616
NCI-H1993 | 0.821 | 0.872 | 0.994 | 0.851 | 0.982 | 0.536 | 0.661 | 0.813 | 0.629 | 0.775 | 0.678 | 0.514 | 0.647 | 0.627 | – | 0.83 | 0.978 | 0.778
PC-3 [JPC-3] | 0.903 | – | 0.933 | – | 0.638 | 0.548 | – | 0.537 | – | 0.536 | 0.791 | 0.88 | 0.797 | 0.873 | 1.02 | 1.07 | 1.06 | 1.02
NCI-H1915 | 0.699 | 0.681 | 0.671 | 0.661 | 0.689 | 0.524 | 0.532 | 0.538 | 0.514 | 0.56 | 0.28 | 0.26 | 0.282 | 0.278 | 0.873 | 0.815 | 0.969 | 0.889
NCI-H1666 | 0.966 | 0.843 | 0.878 | 0.872 | 0.766 | 0.618 | 0.632 | 0.64 | 0.622 | 0.599 | 0.724 | 0.706 | 0.767 | 0.723 | 1.13 | 0.969 | 1.15 | 0.794
HCC-366 | 0.272 | 0.346 | 0.197 | 0.254 | 0.249 | 0.405 | 0.361 | 0.43 | 0.395 | 0.38 | 0.369 | 0.284 | 0.351 | 0.327 | 0.599 | 0.473 | 0.698 | 0.328
SK-MES-1 | – | – | – | – | – | 0.352 | 0.344 | 0.29 | 0.32 | 0.319 | 0.497 | 0.374 | 0.405 | 0.416 | 1.03 | 0.902 | 1.02 | 1.01
NCI-H727 | 0.664 | 0.582 | 0.635 | 0.521 | 0.53 | 0.702 | 0.654 | 0.663 | 0.646 | 0.648 | 0.994 | 0.847 | 0.896 | 0.991 | 0.928 | 0.85 | 0.936 | 0.781
RERF-LC-KJ | 0.97 | 1.04 | 1.29 | 0.978 | 0.889 | 1.04 | 1.18 | 1.19 | 1.14 | 0.966 | 0.745 | 0.631 | 0.837 | 0.66 | 0.874 | 0.849 | 0.872 | 0.855
Calu-6 | – | – | – | – | – | – | – | – | – | – | – | – | – | – | 0.865 | 0.795 | 0.914 | 0.727
LC-2-ad | 0.885 | 0.863 | 0.881 | 0.812 | 0.799 | 0.528 | 0.487 | 0.466 | 0.488 | 0.499 | 0.808 | 0.831 | 0.857 | 0.909 | 0.495 | 0.427 | 0.462 | 0.482
CAL-12T | 0.633 | 0.588 | 0.611 | 0.568 | 0.637 | 0.429 | 0.444 | 0.552 | 0.395 | 0.285 | – | – | – | – | 0.785 | 0.556 | 0.67 | 0.396
SK-LU-1 | – | – | – | – | – | 0.372 | 0.363 | 0.365 | 0.346 | 0.428 | 0.689 | 0.611 | 0.791 | 0.61 | 0.936 | 0.967 | 1.08 | 0.854
NCI-H1650 | – | – | – | – | – | 0.328 | 0.328 | 0.309 | 0.368 | 0.345 | 0.452 | 0.369 | 0.45 | 0.436 | 0.892 | 0.937 | 0.979 | 0.992
BEN | 0.806 | 0.662 | 0.743 | 0.613 | 0.619 | 0.457 | 0.449 | 0.505 | 0.497 | 0.486 | 0.736 | 0.658 | 0.838 | 0.7 | 0.773 | 0.778 | 1.14 | 0.866
EMC-BAC-2 | 1.04 | 1.16 | 1.09 | 1.04 | 1.1 | 0.434 | 0.546 | 0.554 | 0.506 | 0.533 | 0.976 | 0.875 | 0.948 | 0.892 | 0.781 | 0.716 | 0.904 | 0.586
